Experimental findings from ChEMBL document CHEMBL3588756, “Allobetulin derived seco-oleananedicarboxylates act as inhibitors of acetylcholinesterase” (Bioorg Med Chem Lett, 2015) are described below.

A value given as a limit tells only on which side of the number the result lay.

Data set [1] is described as follows: Cytotoxicity against mouse NIH/3T3 cells assessed as cell survival after 96 hrs by sulforhodamine-B assay. It is filed as cell-based. The note with it: NIH3T3, 96 h.
Data set [2] addresses T1, Acetylcholinesterase (Electrophorus electricus, UniProt O42275). As to the kind of experiment: Inhibition of Electrophorus electricus acetylcholinesterase using acetylthiocholine iodide as substrate preincubated for 20 mins followed by substrate addition measured for 30 mins by Ellman's method.
Data set [3] has as its target T1, Acetylcholinesterase. As to the kind of experiment: Uncompetitive Inhibition of Electrophorus electricus acetylcholinesterase using acetylthiocholine iodide as substrate preincubated for 20 mins followed by substrate addition measured for 30 mins by Ellman's method.
Data set [4] has as its target T1, Acetylcholinesterase. Briefly: Competitive Inhibition of Electrophorus electricus acetylcholinesterase using acetylthiocholine iodide as substrate preincubated for 20 mins followed by substrate addition measured for 30 mins by Ellman's method.
Data set [5] is described as follows: Solubility of the compound in aqueous buffer. It is filed as physicochemical.
In another data set the target is Cholinesterase (Equus caballus, UniProt P81908). Briefly: Inhibition of equine serum butyrylcholinesterase using butyrylthiocholineidioide as substrate preincubated for 20 mins followed by substrate addition measured for 30 mins by Ellman's method.
Sequence of Cholinesterase (P81908 whole entry): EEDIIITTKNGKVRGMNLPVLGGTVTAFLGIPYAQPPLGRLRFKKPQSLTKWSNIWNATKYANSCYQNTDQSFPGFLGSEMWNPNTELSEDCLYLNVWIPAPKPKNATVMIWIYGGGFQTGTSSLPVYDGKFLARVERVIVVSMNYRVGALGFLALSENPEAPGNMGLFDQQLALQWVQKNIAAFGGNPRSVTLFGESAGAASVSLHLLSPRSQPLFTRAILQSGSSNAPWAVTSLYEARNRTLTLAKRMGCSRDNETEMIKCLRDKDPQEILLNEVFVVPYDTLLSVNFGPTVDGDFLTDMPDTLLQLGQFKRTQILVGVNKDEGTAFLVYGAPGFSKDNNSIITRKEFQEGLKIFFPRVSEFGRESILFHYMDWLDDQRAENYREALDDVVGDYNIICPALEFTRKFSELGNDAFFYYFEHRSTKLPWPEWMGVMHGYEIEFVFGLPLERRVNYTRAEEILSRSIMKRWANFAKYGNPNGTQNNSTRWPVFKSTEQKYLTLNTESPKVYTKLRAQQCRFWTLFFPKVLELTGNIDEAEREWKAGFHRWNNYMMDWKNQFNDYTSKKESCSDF

T1 sequence (O42275 whole entry): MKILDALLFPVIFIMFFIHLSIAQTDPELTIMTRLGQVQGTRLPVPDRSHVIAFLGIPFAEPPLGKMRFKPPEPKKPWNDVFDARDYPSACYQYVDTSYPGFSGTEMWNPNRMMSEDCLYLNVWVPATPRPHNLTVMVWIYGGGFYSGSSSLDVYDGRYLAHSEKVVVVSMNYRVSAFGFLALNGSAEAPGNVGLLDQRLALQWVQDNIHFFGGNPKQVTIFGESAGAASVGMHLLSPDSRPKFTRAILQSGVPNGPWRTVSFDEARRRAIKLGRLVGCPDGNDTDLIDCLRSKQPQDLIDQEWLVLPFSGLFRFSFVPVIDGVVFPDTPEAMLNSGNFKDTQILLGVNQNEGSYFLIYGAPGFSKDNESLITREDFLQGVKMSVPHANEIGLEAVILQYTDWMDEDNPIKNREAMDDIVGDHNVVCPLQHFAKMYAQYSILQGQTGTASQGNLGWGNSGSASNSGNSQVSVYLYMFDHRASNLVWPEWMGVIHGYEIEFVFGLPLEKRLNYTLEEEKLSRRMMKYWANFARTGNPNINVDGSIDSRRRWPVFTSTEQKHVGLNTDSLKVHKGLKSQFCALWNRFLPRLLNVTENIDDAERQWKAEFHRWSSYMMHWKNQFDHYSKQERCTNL

Consider `C=C(C)[C@@H]1CC[C@]2(C)[C@H](CC[C@@H]3[C@H]4[C@H]5OC[C@@]4(CCC5(C)C)CC[C@]32C)[C@@]1(C)CCC(=O)O`, for which, in data set [1], the EC50 is more than 30 µM. Besides, the affinity on Acetylcholinesterase [2] corresponds to a Ki of 31.8 µM.

In the case of `C#CCOC(=O)CC[C@]1(C)[C@H]2CC[C@@H]3[C@H]4[C@H]5OC[C@@]4(CCC5(C)C)CC[C@@]3(C)[C@]2(C)CC[C@H]1C(=C)C`, in data set [1], the EC50 was more than 30 µM. Besides, the Ki on Acetylcholinesterase [3] stood at 2.48 µM; at Acetylcholinesterase [4], 3.33 µM.

Consider `C#CCOC(=O)C[C@]1(C)[C@H]2CC[C@@H]3[C@H]4[C@H]5OC[C@@]4(CCC5(C)C)CC[C@@]3(C)[C@]2(C)CC[C@H]1C(C)(C)C(=O)OCC#C`, for which the half-maximal effective concentration (EC50) in data set [1] was 7 µM. Moreover, the inhibition constant Ki came out at 4.63 µM on Acetylcholinesterase [3] and 10.5 µM on Acetylcholinesterase [4].

As to `C=CCCOC(=O)C[C@]1(C)[C@H]2CC[C@@H]3[C@H]4[C@H]5OC[C@@]4(CCC5(C)C)CC[C@@]3(C)[C@]2(C)CC[C@H]1C(C)(C)C(=O)OCCC=C`, the EC50 in data set [1] was more than 30 µM.

As for `C=CCCOC(=O)CC[C@]1(C)[C@H]2CC[C@@H]3[C@H]4[C@H]5OC[C@@]4(CCC5(C)C)CC[C@@]3(C)[C@]2(C)CC[C@H]1C(=C)C`, the solubility entry in data set [5] is “Insoluble”.

Consider `N[C@@H](CO)C(=O)O` [SERINE], for which the half-maximal inhibitory concentration (IC50) on Cholinesterase worked out at 0.016 µM; against Acetylcholinesterase [2], 0.015 µM.
